Read-outs that look alike come from different tables or passages of the source. Where a SMILES comes first, the peptide text is derived from it.
Experiments:
[1] = molecular target: Coagulation Factor Xa, from uman plasma (Homo sapiens, UniProt P00742); experiment: Enzymatic assay, coagulation factor Xa
[2] = tested on: human red blood cells (hRBC); experiment: Hemolysis
Protocol: The peptides were tested for their hemolytic activity against human red blood cells (hRBC). Fresh hRBC were washed three times with phosphate buffered saline (PBS) by centrifugation for 10 min at 2000×g. Peptides at a concentration of 100 μM were incubated with 20% v/v hRBC for 1 hour at 37° C. The final erythrocyte concentration was approximately 0.9×10^9 cells per ml. A value of 0% and, respectively, 100% cell lysis was determined by incubation of the hRBC in the presence of PBS alone and, respectively, 0.1% Triton X-100 in H2O. […] The 100% lysis value (OD540H20) gave an OD540 of approximately 1.3-1.8. Percent hemolysis was calculated as follows: (OD540peptide/OD540H20)×100%.

[3] = molecular target: Thrombin, from Human Plasma (Homo sapiens, UniProt P00734); experiment: Enzymatic assay, thrombin
[4] = molecular target: Trypsin, from human pancreas (Homo sapiens, UniProt P07477); experiment: Enzymatic assay, trypsin; conditions: at 100 μM
[5] = molecular target: Chymotrypsin, from human pancreas (Homo sapiens, UniProt P17538); experiment: Enzymatic assay, chymotrypsin
Chymotrypsin, from human pancreas, sequence (P17538 19-263): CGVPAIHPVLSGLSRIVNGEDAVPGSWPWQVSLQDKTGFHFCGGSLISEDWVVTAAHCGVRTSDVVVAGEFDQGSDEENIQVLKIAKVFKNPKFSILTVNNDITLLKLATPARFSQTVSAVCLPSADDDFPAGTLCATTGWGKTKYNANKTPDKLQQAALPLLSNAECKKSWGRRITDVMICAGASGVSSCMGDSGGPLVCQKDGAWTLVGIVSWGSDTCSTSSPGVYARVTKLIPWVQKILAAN

Chymase, from human skin = molecular target: T1, Chymase, from human skin (Homo sapiens, UniProt P23946); experiment: Enzymatic assay, chymase
T1 sequence (P23946 22-247): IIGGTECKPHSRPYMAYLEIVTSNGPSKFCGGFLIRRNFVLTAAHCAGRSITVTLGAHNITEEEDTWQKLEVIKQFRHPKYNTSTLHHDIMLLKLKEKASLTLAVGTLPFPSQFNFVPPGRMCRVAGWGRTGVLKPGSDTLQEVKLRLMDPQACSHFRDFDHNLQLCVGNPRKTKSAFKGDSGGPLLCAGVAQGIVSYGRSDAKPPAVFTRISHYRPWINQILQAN

[6] = molecular target: Urokinase from human urine (Homo sapiens, UniProt P00749); experiment: Enzymatic assay, urokinase
[7] = tested on: Tryptase, from human lung; experiment: Enzymatic assay, tryptase; conditions: at 100 μM
[8] = molecular target: T2, Elastase from human neutrophils (Homo sapiens, UniProt P08246); experiment: Enzymatic assay, elastase
T2 sequence (P08246 30-267): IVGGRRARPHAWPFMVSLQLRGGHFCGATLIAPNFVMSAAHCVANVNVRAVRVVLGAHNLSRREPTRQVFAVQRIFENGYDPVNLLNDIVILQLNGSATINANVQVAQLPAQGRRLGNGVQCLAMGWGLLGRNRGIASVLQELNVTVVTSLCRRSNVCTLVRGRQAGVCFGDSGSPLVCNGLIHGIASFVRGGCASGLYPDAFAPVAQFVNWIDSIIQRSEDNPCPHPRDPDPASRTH

[9] = molecular target: T3, CathepsinG, from human neutrophils (Homo sapiens, UniProt P08311); experiment: Enzymatic assay, cathepsin G
T3 sequence (P08311 21-244): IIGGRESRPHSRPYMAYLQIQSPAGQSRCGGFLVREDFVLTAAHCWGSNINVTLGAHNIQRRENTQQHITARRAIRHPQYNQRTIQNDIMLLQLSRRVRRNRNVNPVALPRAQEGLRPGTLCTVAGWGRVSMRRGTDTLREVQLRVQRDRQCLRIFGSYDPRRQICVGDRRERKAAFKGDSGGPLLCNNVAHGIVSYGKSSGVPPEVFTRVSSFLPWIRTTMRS

HELA cells (Acc57) = experiment: Cytotoxicity assay (MTT reduction), HELA cells; format: cell-based; conditions: Hela cells
Summary of the method: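 HeLa cells were grown for 24 h, then exposed to peptides at 12.5, 25 and 50 μM in triplicate for 48 h at 37 °C. MTT reduction was read at 595 nm and growth % calculated relative to time-zero wells. LC50 interpolated by linear trend at −50% growth, GI50 at 50%.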

Coagulation Factor Xa, from uman plasma, sequence (P00742 235-488 limits assumed): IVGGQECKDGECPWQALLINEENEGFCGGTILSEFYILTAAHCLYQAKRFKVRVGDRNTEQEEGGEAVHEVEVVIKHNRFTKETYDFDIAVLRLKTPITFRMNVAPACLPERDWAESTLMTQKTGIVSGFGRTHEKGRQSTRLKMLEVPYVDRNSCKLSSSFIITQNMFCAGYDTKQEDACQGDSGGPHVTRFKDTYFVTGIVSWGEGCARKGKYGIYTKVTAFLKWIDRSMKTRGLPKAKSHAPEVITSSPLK
Coagulation Factor Xa, from uman plasma, sequence (P00742 41-179 limits assumed): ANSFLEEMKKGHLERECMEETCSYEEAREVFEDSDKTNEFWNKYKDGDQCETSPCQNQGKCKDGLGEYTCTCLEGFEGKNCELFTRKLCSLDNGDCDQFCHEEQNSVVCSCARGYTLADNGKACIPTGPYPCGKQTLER

Structure (SMILES)	FXa at 100 μM % [1]	Hemolysis at 100 μM % [2]	Thrombin at 100 μM % [3]	Trypsin at 100 μM % [4]	Chymotrypsin at 100 μM % [5]	Chymase at 100 μM % (Chymase, from human skin)	Urokinase at 100 μM % [6]	Tryptase at 100 μM % [7]	IC50 ([8]; Elastase IC50)	IC50 ([9]; Cathepsin G IC50)	Cytotoxicity LC50/GI50 Hela cells (HELA cells (Acc57))	IC50 ([8]; read-out: Elastase IC50)	IC50 ([9]; read-out: Cathepsin G IC50)	IC50 [5]
CC[C@H](C)[C@@H]1NC(=O)[C@@H]2CCCN2C(=O)[C@@H]2CCCN2C(=O)[C@H](CC(=O)O)NC(=O)[C@H](CO)NC(=O)[C@H](CCCCN)NC(=O)[C@H]([C@@H](C)O)NC(=O)[C@@H]2CSSC[C@H](NC1=O)C(=O)N[C@@H](Cc1ccc(O)cc1)C(=O)N1CCC[C@@H]1C(=O)N1CCC[C@H]1C(=O)N[C@@H](Cc1ccccc1)C(=O)N2 [Ex. 5] (HELM PEPTIDE1{F.C.T.K.S.D.P.P.I.C.Y.[dP].P}$PEPTIDE1,PEPTIDE1,2:R3-10:R3|PEPTIDE1,PEPTIDE1,1:R1-13:R2$$$V2.0)	0.2%	0%	0.5%	92%	3%	0%	5.7%	74%	> 100 µM	0.056 µM	–	–	–	–
CCCC[C@@H]1NC(=O)[C@@H]2CCCN2C(=O)[C@@H]2CCCN2C(=O)[C@H](CC(=O)O)NC(=O)[C@H](CO)NC(=O)[C@H](CCCCN)NC(=O)[C@H]([C@@H](C)O)NC(=O)[C@@H]2CSSC[C@H](NC1=O)C(=O)N[C@@H](CO)C(=O)N1CCC[C@@H]1C(=O)N1CCC[C@H]1C(=O)N[C@@H](Cc1ccccc1)C(=O)N2 [Ex. 15] (HELM PEPTIDE1{F.C.T.K.S.D.P.P.[Nle].C.S.[dP].P}$PEPTIDE1,PEPTIDE1,2:R3-10:R3|PEPTIDE1,PEPTIDE1,1:R1-13:R2$$$V2.0)	–	0%	–	95.0%	54.2%	12.7%	–	–	> 100 µM	0.056 µM	100 µM	–	–	–
CC[C@H](C)[C@@H]1NC(=O)[C@@H]2CCCN2C(=O)[C@H]2CCCN2C(=O)[C@H](CCCNC(=N)N)NC(=O)[C@@H]2CSSC[C@H](NC1=O)C(=O)N[C@@H]([C@@H](C)O)C(=O)N[C@@H](CCCCN)C(=O)N[C@@H](CO)C(=O)N[C@@H](CC(=O)O)C(=O)N1CCC[C@H]1C(=O)N1CCC[C@H]1C(=O)N[C@@H](CCC(N)=O)C(=O)N2 [Ex. 17] (HELM PEPTIDE1{I.C.T.K.S.D.P.P.Q.C.R.[dP].P}$PEPTIDE1,PEPTIDE1,2:R3-10:R3|PEPTIDE1,PEPTIDE1,1:R1-13:R2$$$V2.0)	–	0.1%	0%	90.0%	16%	27.6%	–	90.4%	> 100 µM	0.055 µM	94 µM	–	–	–
CC[C@H](C)[C@@H]1NC(=O)[C@@H]2CCCN2C(=O)[C@H]2CCCN2C(=O)[C@H](CCCNC(=N)N)NC(=O)[C@@H]2CSSC[C@H](NC1=O)C(=O)N[C@@H]([C@@H](C)O)C(=O)N[C@@H](CCCCN)C(=O)N[C@@H](CO)C(=O)N[C@@H](CC(=O)O)C(=O)N1CCC[C@H]1C(=O)N1CCC[C@H]1C(=O)N[C@@H](Cc1ccc(O)cc1)C(=O)N2 [Ex. 18] (HELM PEPTIDE1{I.C.T.K.S.D.P.P.Y.C.R.[dP].P}$PEPTIDE1,PEPTIDE1,2:R3-10:R3|PEPTIDE1,PEPTIDE1,1:R1-13:R2$$$V2.0)	–	0%	0%	84%	25%	32.5%	–	88.3%	> 100 µM	0.047 µM	100 µM	–	–	–
CC[C@H](C)[C@@H]1NC(=O)[C@@H]2CCCN2C(=O)[C@@H]2CCCN2C(=O)[C@H](CC(=O)O)NC(=O)[C@H](CO)NC(=O)[C@H](CCCCN)NC(=O)[C@H]([C@@H](C)O)NC(=O)[C@@H]2CSSC[C@H](NC1=O)C(=O)N[C@@H](Cc1ccc(O)cc1)C(=O)N1CCC[C@@H]1C(=O)N1CCC[C@H]1C(=O)N[C@@H](CC1CCCCC1)C(=O)N2 [Ex. 36] (HELM PEPTIDE1{[Cha].C.T.K.S.D.P.P.I.C.Y.[dP].P}$PEPTIDE1,PEPTIDE1,2:R3-10:R3|PEPTIDE1,PEPTIDE1,1:R1-13:R2$$$V2.0)	–	0%	–	–	–	–	0%	73.3%	–	0.041 µM	83 µM	–	–	–
CCCC[C@@H]1NC(=O)[C@@H]2CCCN2C(=O)[C@@H]2CCCN2C(=O)[C@H](CC(=O)O)NC(=O)[C@H](CO)NC(=O)[C@H](CCCCN)NC(=O)[C@H]([C@@H](C)O)NC(=O)[C@@H]2CSSC[C@H](NC1=O)C(=O)N[C@@H](CO)C(=O)N1CCC[C@@H]1C(=O)N1CCC[C@H]1C(=O)N[C@@H](Cc1ccccc1)C(=O)N2 [Ex. 53] (HELM PEPTIDE1{F.C.T.K.S.D.P.P.[Nle].C.S.[dP].P}$PEPTIDE1,PEPTIDE1,2:R3-10:R3|PEPTIDE1,PEPTIDE1,1:R1-13:R2$$$V2.0)	–	0%	–	95%	54%	12.7%	–	–	–	–	63 µM	> 100 µM	0.056 µM	–
CC[C@H](C)[C@@H]1NC(=O)[C@@H]2CCCN2C(=O)[C@H]2CCCN2C(=O)[C@H](CCCNC(=N)N)NC(=O)[C@@H]2CSSC[C@H](NC1=O)C(=O)N[C@@H]([C@@H](C)O)C(=O)N[C@@H](CCCCN)C(=O)N[C@@H](CO)C(=O)N[C@@H](CC(=O)O)C(=O)N1CCC[C@H]1C(=O)N1CCC[C@H]1C(=O)N[C@@H](CCC(N)=O)C(=O)N2 [Ex. 55] (HELM PEPTIDE1{I.C.T.K.S.D.P.P.Q.C.R.[dP].P}$PEPTIDE1,PEPTIDE1,2:R3-10:R3|PEPTIDE1,PEPTIDE1,1:R1-13:R2$$$V2.0)	–	0.1%	–	90%	16%	27.6%	–	90.4%	–	–	94 µM	> 100 µM	0.055 µM	–
CCCC[C@@H]1NC(=O)[C@@H]2CCCN2C(=O)[C@@H]2CCCN2C(=O)[C@H](CC(=O)O)NC(=O)[C@H](CO)NC(=O)[C@H](CCCCN)NC(=O)[C@H]([C@@H](C)O)NC(=O)[C@@H]2CSSC[C@H](NC1=O)C(=O)N[C@@H](CCCNC(=N)N)C(=O)N1CCC[C@@H]1C(=O)N1CCC[C@H]1C(=O)N[C@@H]([C@@H](C)CC)C(=O)N2 [Ex. 57] (HELM PEPTIDE1{I.C.T.K.S.D.P.P.[Nle].C.R.[dP].P}$PEPTIDE1,PEPTIDE1,2:R3-10:R3|PEPTIDE1,PEPTIDE1,1:R1-13:R2$$$V2.0)	32%	0%	11%	94%	0%	26.9%	4%	82.2%	–	–	–	> 100 µM	0.041 µM	–
CCCC[C@@H]1NC(=O)[C@H](Cc2ccccc2)NC(=O)[C@H]2CCCN2C(=O)[C@H](Cc2ccc(O)cc2)NC(=O)[C@@H]2CSSC[C@H](NC1=O)C(=O)N[C@@H]([C@@H](C)O)C(=O)N[C@@H](C)C(=O)N[C@@H](CO)C(=O)N[C@@H]([C@@H](C)CC)C(=O)N1CCC[C@H]1C(=O)N1CCC[C@H]1C(=O)N[C@@H](CCC(N)=O)C(=O)N2 [Ex. 122] (HELM PEPTIDE1{[Nle].C.T.A.S.I.P.P.Q.C.Y.[dP].F}$PEPTIDE1,PEPTIDE1,2:R3-10:R3|PEPTIDE1,PEPTIDE1,1:R1-13:R2$$$V2.0)	19.6%	–	0%	19%	–	6.4%	11.1%	0.2%	0.018 µM	35.1 µM	29 µM	–	–	58 µM

From patent US8658604B2, “Template-fixed beta-hairpin peptidomimetics with protease inhibitory activity” (Polyphor Ltd, priority 2005, dated 2014)
